Test results: US20230340127A1, “METHODS AND COMPOSITIONS FOR CANCER TREATMENT BY INHIBITION OF FBXO44” (Sanford Burnham Prebys Medical Discovery Institute, priority 2022, published 2023)

System: MDA-MB-231-luc-derived mammary tumors
Assay: MDA-MB-231-luc orthotopic mammary tumors in immunodeficient mice treated with F5446
Assay type: in vivo, mouse
Procedure: Animal studies: mice were maintained under pathogen free conditions in 14 hrs light/10 hrs dark cycle with ad libitum access to food and water. All animal handling and procedures used were performed in accordance with protocols approved by the Institutional Animal Care and Use Committee of SBP or UCSD. For intracardiac injections, 10^5 MDA-MB-231-luc cells transduced with lentivirus expressing non-targeting or FBXO44 shRNAs were resuspended in 100 μL DPBS and injected into the left ventricle of 6-week old female athymic nude mice (Envigo no. 069) anesthetized with isoflurane. Metastatic seeding was monitored weekly by intraperitoneal (i.p.) injection of 100 μL of 30 mg/mL D-Luciferin (Xenogen no.)CR-1001) 10 min prior to imaging using the IVIS Spectrum Xenogen Imaging System (Caliper Life Sciences). Images were analyzed using Living Image 3.0 software (Caliper Life Sciences). For ex vivo imaging of tissues, mice were injected with D-Luciferin prior to euthanasia, tissues harvested and placed in 24-well tissue culture plates containing 1 mL of 0.3 mg/mL D-Luciferin and imaged. Organs/tissues were fixed in 10% formalin and subjected to hematoxylin and eosin staining. For orthotopic injections of NSG mice, 3×10^6 MDA-MB-231-luc cells were suspended in 100 μL of PBS and injected into the mammary fat pads of 4- to 6-week-old female mice. For F5446 drug treatments, mice were randomly divided into 3 groups at day 12. The mice were administered vehicle (10% Cremophor EL in PBS) or F5446 at doses of 10 and 20 mg/kg body weight via i.p. injection on days 12, 14, 17, 19, 21 and 24 post-inoculation of cells. Tumor size was measured every 4-5 days (long diameter and short diameter) with a caliper and tumor volume calculated as 0.5×length×width×width. Mice were imaged weekly to monitor tumor growth and metastasis in vivo using an IVIS Spectrum Xenogen Imaging System (Caliper Life Sciences). All mice were euthanized at day 25 except 3 mice were taken out from each group for tumor IHC staining of γH2AX and cleaved Caspase 3 and quantitative RT-PCR analysis at day 21. […]

## COC(=O)c1cc2c(n1S(=O)(=O)c1ccc(Cl)cc1)C(=O)C(=O)c1[nH]cc(C(=O)OCc3ccccc3)c1-2 [F5446]
IHC of F5446-treated tumors (FIG. 12K)
  γH2AX and cleaved Caspase 3 in tumors: dose-dependent increase
Immunocompromised mice, 10 and 20 mg/kg i.p. (FIGS. 12H-12J)
  mammary tumor growth: inhibited mammary tumor growth in immunocompromised mice in a dose-dependent manner
qRT-PCR of F5446-treated tumors (FIG. 12L)
  expression of REs, IFN α/β, and ISGs in tumors: upregulated
